Test results taken from ChEMBL document CHEMBL5241112, “Insights into the recent progress in the medicinal chemistry of pyranopyrimidine analogs” (RSC Med Chem, 2022).
In brackets after ≈: the same amount, converted by molar mass.

Assays:
Alpha-glucosidase = Alpha-glucosidase (Saccharomyces cerevisiae S288c, UniProt P53341+P38158+P07265); assay: Inhibition of Saccharomyces cerevisiae alpha-glucosidase preincubated for 5 mins followed by PNP-GLUC substrate addition and measured after 20 mins by spectroscopic analysis; type: protein assay
Albumin = Albumin (Bos taurus, UniProt P02769); assay: […] bovine serum albumin denaturation incubated for 23 mins by UV-Visible spectrophotometry
[1] = Inhibition of porcine pancreatic alpha-amylase preincubated for 10 mins followed by substrate starch addition and measured after 10 mins by colorimetric analysis; parameters: species or system Sus scrofa
[2] = test system: Mycobacterium tuberculosis; assay: Antitubercular activity against Mycobacterium tuberculosis H37Rv assessed as bacterial growth inhibition incubated for 24 hrs by MABA assay; type: functional
HepG2 = assay: Anticancer activity against human HepG2 cells assessed as reduction in cell viability; type: functional, cell-based
MCF7 [3] = assay: Anticancer activity against human MCF7 cells assessed as reduction in cell viability; type: functional, cell-based
HCT-116 [4] = assay: cells; conditions: Homo sapiens
HCT-116 [5] = assay: Anticancer activity against human HCT-116 cells assessed as reduction in cell viability incubated for 96 hrs by MTT assay; type: functional, cell-based; conditions: HCT-116, 96 h
MCF7 [6] = assay: cells; conditions: Homo sapiens, MCF7, 48 h
Staphylococcus aureus [7] = assay: Antibacterial activity against Staphylococcus aureus assessed as diameter of inhibition zone; type: functional
Bacillus subtilis = assay: Antibacterial activity against Bacillus subtilis assessed as diameter of inhibition zone; type: functional
Escherichia coli [8] = assay: Antibacterial activity against Escherichia coli assessed as diameter of inhibition zone; type: functional
Salmonella typhimurium = assay: Antibacterial activity against Salmonella typhimurium assessed as diameter of inhibition zone; type: functional, Salmonella enterica subsp. enterica serovar Typhimurium
Bacillus cereus = assay: Antimicrobial activity against Bacillus cereus ATCC14579 assessed as diameter of inhibition zone at 20 mg/ml incubated for 24 hrs by disk diffusion method; type: functional; conditions: read-out: DIZ
Staphylococcus aureus [9] = assay: Antimicrobial activity against Staphylococcus aureus NCTC7447 assessed as diameter of inhibition zone at 20 mg/ml incubated for 24 hrs by disk diffusion method; type: functional; conditions: read-out: DIZ
Klebsiella pneumoniae = assay: Antimicrobial activity against Klebsiella pneumoniae UC57 assessed as diameter of inhibition zone at 20 mg/ml incubated for 24 hrs by disk diffusion method; type: functional; conditions: read-out: DIZ
Pseudomonas aeruginosa = assay: Antimicrobial activity against Pseudomonas aeruginosa ATCC 27853 assessed as diameter of inhibition zone at 20 mg/ml incubated for 24 hrs by disk diffusion method; type: functional; conditions: read-out: DIZ
Escherichia coli [10] = assay: Antimicrobial activity against Escherichia coli ATCC 14169 assessed as diameter of inhibition zone at 20 mg/ml incubated for 24 hrs by disk diffusion method; type: functional; conditions: read-out: DIZ

Chain of Albumin (P02769 whole entry): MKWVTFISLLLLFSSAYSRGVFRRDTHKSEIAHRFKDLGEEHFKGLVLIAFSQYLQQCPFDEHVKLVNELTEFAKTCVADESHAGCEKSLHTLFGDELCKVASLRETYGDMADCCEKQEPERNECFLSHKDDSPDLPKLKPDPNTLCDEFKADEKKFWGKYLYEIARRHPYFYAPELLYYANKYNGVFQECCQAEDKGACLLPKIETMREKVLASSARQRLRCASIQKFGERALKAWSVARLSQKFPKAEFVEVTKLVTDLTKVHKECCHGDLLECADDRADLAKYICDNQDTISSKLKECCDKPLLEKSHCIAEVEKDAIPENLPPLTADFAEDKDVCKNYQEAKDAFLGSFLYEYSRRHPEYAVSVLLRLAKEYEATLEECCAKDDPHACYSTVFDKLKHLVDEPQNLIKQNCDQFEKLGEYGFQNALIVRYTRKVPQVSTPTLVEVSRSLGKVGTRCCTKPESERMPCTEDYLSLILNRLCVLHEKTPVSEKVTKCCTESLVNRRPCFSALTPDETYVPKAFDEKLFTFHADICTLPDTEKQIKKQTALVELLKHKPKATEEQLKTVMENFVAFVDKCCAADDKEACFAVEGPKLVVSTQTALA

**Q.** Which IC50 (Alpha-glucosidase) does the source give for COc1ccc(C2C(C(=O)N3CCCCC3)=C(c3ccccc3O)Oc3[nH]c(=S)[nH]c(=O)c32)cc1 (stereo not drawn) here?
**A.** Its IC50 is 5223 µM.

**Q.** And the IC50 (Albumin)?
**A.** Its IC50 is 18.1 µM.

**Q.** What about the IC50 [1] of the same molecule?
**A.** Its IC50 is 16.1 µM.

**Q.** For O=c1nc2c3c([nH]1)Oc1c(O)cccc1C3c1c(c3ccccc3oc1=O)O2 (stereo not drawn), which MIC [2] is on record?
**A.** Its MIC is 50 µg/mL (≈ 134 µM).

**Q.** With COc1ccc(C2c3c([nH]c(=O)[nH]c3=O)Oc3ncn(-c4ccccc4N)c(=N)c32)cc1 (stereo not drawn) as the molecule, how does the IC50 (HepG2) read?
**A.** The IC50 was 2.09 µM.

**Q.** And the IC50 (MCF7 [3])?
**A.** Its IC50 is 2.43 µM.

**Q.** What about the IC50 (HCT-116 [4]) of the same molecule?
**A.** Its IC50 is 2.61 µM.

**Q.** With COc1ccc(C2c3c([nH]c(=O)[nH]c3=O)Oc3ncn(-c4ccc(C)cc4)c(=N)c32)cc1 (stereo not drawn) as the molecule, how does the IC50 (HepG2) read?
**A.** The IC50 was 2.09 µM.

**Q.** And the IC50 (MCF7 [3])?
**A.** Its IC50 is 2.43 µM.

**Q.** What about the IC50 (HCT-116 [4]) of the same molecule?
**A.** Its IC50 is 2.61 µM.

**Q.** With CCO/C=N/C1=C(C#N)C(c2cccs2)c2c([nH]c(=O)[nH]c2=O)O1 (stereo not drawn) as the molecule, how does the IC50 (HCT-116 [5]) read?
**A.** Its IC50 is 2.9 µM.

**Q.** With COc1cc(C2CC(=O)Oc3[nH]c(=O)[nH]c(=O)c32)cc(OC)c1OC (stereo not drawn) as the molecule, how does the IC50 (MCF7 [6]) read?
**A.** The IC50 was 8.9 µM.

**Q.** Which IC50 (HepG2) does the source give for CCO/C=N/C1=C(C#N)C(c2ccc(OC)cc2)c2c([nH]c(=O)[nH]c2=O)O1 (stereo not drawn) here?
**A.** The IC50 was 2.09 µM.

**Q.** And the IC50 (MCF7 [3])?
**A.** Its IC50 is 2.43 µM.

**Q.** What about the IC50 (HCT-116 [4]) of the same molecule?
**A.** Its IC50 is 2.61 µM.

**Q.** Which IC50 (Alpha-glucosidase) does the source give for Cc1ccc(C2C(C(=O)N3CCCCC3)=C(c3ccccc3O)Oc3[nH]c(=S)[nH]c(=O)c32)cc1 (stereo not drawn) here?
**A.** Its IC50 is 4000 µM.

**Q.** And the IC50 (Albumin)?
**A.** Its IC50 is 19.5 µM.

**Q.** What about the IC50 [1] of the same molecule?
**A.** Its IC50 is 14.1 µM.

**Q.** With O=c1[nH]cc(F)c(=O)[nH]1 [FLUOROURACIL] as the molecule, how does the IC50 (MCF7 [6]) read?
**A.** Its IC50 is 5.4 µM.

**Q.** Which “diameter of the inhibition zone (DIZ)” value (Staphylococcus aureus [7]) does the source give for N#CC1=C(N)Oc2[nH]c(=O)[nH]c(=O)c2C1c1cccc(Br)c1 (stereo not drawn) here?
**A.** The value was 16 mm.

**Q.** What about the “diameter of the inhibition zone (DIZ)” value (Bacillus subtilis) of the same molecule?
**A.** The value was 18 mm.

**Q.** What about the “diameter of the inhibition zone (DIZ)” value (Escherichia coli [8]) of the same molecule?
**A.** The value was 14 mm.

**Q.** And the “diameter of the inhibition zone (DIZ)” value (Salmonella typhimurium)?
**A.** The value was 16 mm.

**Q.** For COc1ccc(C2C(C#N)=C(N)Oc3[nH]c(=O)[nH]c(=O)c32)cc1OC (stereo not drawn), which zone of inhibition at 20000 µg/mL (Bacillus cereus) is on record?
**A.** Its zone of inhibition at 20000 µg/mL is 9 mm.

**Q.** And the zone of inhibition at 20000 µg/mL (Staphylococcus aureus [9])?
**A.** The zone of inhibition at 20000 µg/mL was 8 mm.

**Q.** And the zone of inhibition at 20000 µg/mL (Klebsiella pneumoniae)?
**A.** Its zone of inhibition at 20000 µg/mL is 14 mm.

**Q.** And the zone of inhibition at 20000 µg/mL (Pseudomonas aeruginosa)?
**A.** The zone of inhibition at 20000 µg/mL was 4 mm.

**Q.** What about the zone of inhibition at 20000 µg/mL (Escherichia coli [10]) of the same molecule?
**A.** The zone of inhibition at 20000 µg/mL was 8 mm.

**Q.** And the “diameter of the inhibition zone (DIZ)” value (Bacillus subtilis)?
**A.** Its value is 10 mm.

**Q.** What about the “diameter of the inhibition zone (DIZ)” value (Salmonella typhimurium) of the same molecule?
**A.** The value was 8 mm.

**Q.** With CN[C@@H]1C[C@H]2O[C@@](C)([C@@H]1OC)n1c3ccccc3c3c4c(c5c6ccccc6n2c5c31)C(=O)NC4 [STAUROSPORINE] as the molecule, how does the IC50 (HCT-116 [5]) read?
**A.** Its IC50 is 6.94 µM.

**Q.** With N#CC1=C(N)Oc2[nH]c(=O)[nH]c(=O)c2C1c1ccccc1 (stereo not drawn) as the molecule, how does the zone of inhibition at 20000 µg/mL (Bacillus cereus) read?
**A.** The zone of inhibition at 20000 µg/mL was 12 mm.

**Q.** And the zone of inhibition at 20000 µg/mL (Staphylococcus aureus [9])?
**A.** The zone of inhibition at 20000 µg/mL was 8 mm.

**Q.** And the zone of inhibition at 20000 µg/mL (Klebsiella pneumoniae)?
**A.** Its zone of inhibition at 20000 µg/mL is 5 mm.

**Q.** What about the zone of inhibition at 20000 µg/mL (Pseudomonas aeruginosa) of the same molecule?
**A.** Its zone of inhibition at 20000 µg/mL is 14 mm.

**Q.** And the zone of inhibition at 20000 µg/mL (Escherichia coli [10])?
**A.** Its zone of inhibition at 20000 µg/mL is 13 mm.

**Q.** And the “diameter of the inhibition zone (DIZ)” value (Staphylococcus aureus [7])?
**A.** The value was 8 mm.

**Q.** What about the “diameter of the inhibition zone (DIZ)” value (Bacillus subtilis) of the same molecule?
**A.** The value was 10 mm.

**Q.** What about the “diameter of the inhibition zone (DIZ)” value (Salmonella typhimurium) of the same molecule?
**A.** Its value is 10 mm.

**Q.** Which zone of inhibition at 20000 µg/mL (Bacillus cereus) does the source give for N#CC1=C(N)Oc2[nH]c(=O)[nH]c(=O)c2C1c1ccc(O)cc1 (stereo not drawn) here?
**A.** The zone of inhibition at 20000 µg/mL was 14 mm.

**Q.** What about the zone of inhibition at 20000 µg/mL (Staphylococcus aureus [9]) of the same molecule?
**A.** The zone of inhibition at 20000 µg/mL was 15 mm.

**Q.** And the zone of inhibition at 20000 µg/mL (Klebsiella pneumoniae)?
**A.** Its zone of inhibition at 20000 µg/mL is 10 mm.

**Q.** And the zone of inhibition at 20000 µg/mL (Pseudomonas aeruginosa)?
**A.** Its zone of inhibition at 20000 µg/mL is 15 mm.

**Q.** And the zone of inhibition at 20000 µg/mL (Escherichia coli [10])?
**A.** The zone of inhibition at 20000 µg/mL was 15 mm.

**Q.** What about the “diameter of the inhibition zone (DIZ)” value (Staphylococcus aureus [7]) of the same molecule?
**A.** The value was 10 mm.

**Q.** What about the “diameter of the inhibition zone (DIZ)” value (Escherichia coli [8]) of the same molecule?
**A.** The value was 10 mm.

**Q.** What about the “diameter of the inhibition zone (DIZ)” value (Salmonella typhimurium) of the same molecule?
**A.** The value was 10 mm.

**Q.** With O=c1nc2c3c([nH]1)Oc1c(Cl)cc(Cl)cc1C3c1c(c3ccccc3oc1=O)O2 (stereo not drawn) as the molecule, how does the MIC [2] read?
**A.** The MIC was 50 µg/mL (≈ 117 µM).

**Q.** With N#CC1=C(N)Oc2[nH]c(=O)[nH]c(=O)c2C1c1ccc(F)cc1 (stereo not drawn) as the molecule, how does the “diameter of the inhibition zone (DIZ)” value (Bacillus subtilis) read?
**A.** Its value is 10 mm.

**Q.** And the “diameter of the inhibition zone (DIZ)” value (Escherichia coli [8])?
**A.** Its value is 8 mm.

**Q.** What about the “diameter of the inhibition zone (DIZ)” value (Salmonella typhimurium) of the same molecule?
**A.** The value was 12 mm.

**Q.** Which IC50 (Alpha-glucosidase) does the source give for O=C(C1=C(c2ccccc2O)Oc2[nH]c(=S)[nH]c(=O)c2C1c1ccc(O)cc1)N1CCCCC1 (stereo not drawn) here?
**A.** The IC50 was 3553 µM.

**Q.** What about the IC50 (Albumin) of the same molecule?
**A.** Its IC50 is 19.7 µM.

**Q.** And the IC50 [1]?
**A.** Its IC50 is 27.1 µM.

**Q.** For C[C@H]1O[C@H](O[C@H]2[C@H](O)[C@@H](O)[C@@H](O[C@H]3[C@H](O)[C@@H](O)C(O)O[C@@H]3CO)O[C@@H]2CO)[C@H](O)[C@@H](O)[C@@H]1N[C@H]1C=C(CO)[C@@H](O)[C@H](O)[C@H]1O (stereo partly drawn) [ACARBOSE], which IC50 [1] is on record?
**A.** Its IC50 is 0.214 µM.

**Q.** With COc1cc(C2C(C(=O)N3CCCCC3)=C(c3ccccc3O)Oc3[nH]c(=S)[nH]c(=O)c32)ccc1O (stereo not drawn) as the molecule, how does the IC50 (Alpha-glucosidase) read?
**A.** Its IC50 is 4862 µM.

**Q.** And the IC50 (Albumin)?
**A.** The IC50 was 23.3 µM.

**Q.** And the IC50 [1]?
**A.** The IC50 was 22.6 µM.
